Experimental data published in patent publication US20020132832A1, “Treatment of erectile dysfunction” (priority 2001, published 2002).

How the values were obtained:
corpus cavernosum [1] = assay: Ganglionic (major pelvic ganglion) stimulated increase in CCP/MAP in anesthetized rat; assay type: in vivo; conditions: for effect on baseline CCP or MAP: no stimulation; for CCP/MAP at 5 V (mean ± s.e.m.): n=4
Protocol: (§1) Using an in vivo rat model, the effect of Rho-kinase inhibition on corpus cavernosum (CCP) and mean arterial pressure (MAP) was examined. The left carotid artery and right corpus cavernosum of the rat penis were cannulated for continuous monitoring of MAP and CCP respectively as described by Mills, T., et al., (Biol. Reprod. 59, 1413-1418, 1998; J. Appl. Physiol., 91: 1269-1273, 2001). Rats were anesthetized with intramuscular ketamine (87 mg/kg body wt) plus xylazine (13 mg/kg) and maintained on supplemental ketamine as needed. Vasoactive drugs were administered through a cannula in the left corpus cavernosum. For experiments measuring voltage-stimulated changes in CCP and MAP, stainless steel bipolar electrodes were positioned on the right major pelvic ganglion. […] All pressure data were collected for analysis using Polyview data-acquisition software.
After initial measurements of CCP and MAP during ganglionic stimulation, rats were treated with L-NNA, L-NAME (200 μg/kg body weight), or saline control, and after 5 min ganglionic stimulation and CCP/MAP measurements were repeated. […] After 5 min, a 5-V stimulation was repeated, and CCP and MAP measurements were recorded.
Rho-kinase inhibition can also overcome muscle contraction due to inhibition of cyclic GMP formation. […] After 5 min, a 5-V stimulation was repeated, and CCP and MAP measurements were recorded.

[2] = test system: isolated rat cavernosal tissue; assay: Isolated rat cavernosal strips, relaxation of agonist-induced contraction; assay type: cell-based; conditions: for effect on relaxation response of cavernosal strips to 1 μM Y-27632: 10 μM incubation
Protocol: Cavernosal strips (3-4 mm long) were prepared by removal of the corpus spongiosum and dorsal vein, and the proximal portion of the corpus cavernosum divided across the midline of the intact penis. Right and left longitudinal strips were mounted in an isolated muscle bath for measurement of contractile force generation. Strips were bathed in physiologic salt solution (130 mM NaCl, 4.7 mM KCl, 1.18 mM KHPO4, 1.17 mM […], 1.6 mM CaCl2-2H2O, 14.9 mM NaHCO3, 5.5 mM dextrose, and 0.03 mM CaNa2 EDTA), at 37° C., and gassed with 95% O2/5% CO2.

cavernous sinuses = assay: Erectile response to 5V ganglionic stimulation after vasoconstrictor injected into cavernous sinuses; assay type: in vivo; conditions: for effect on erectile response to 5V ganglionic stimulation: METHOX 10 μg/kg or ET-1 50 pmol into cavernous sinuses
Protocol: Thus, FIGS. 8 and 9 show results where after an initial (5V) ganglionic stimulation (Cont), either the α-adrenergic agonist, Methoxamine (METHOX) (10 μg/kg) or endothelin-1 (ET-1) (50 pmol) was injected into the cavernous sinuses.

rat aorta = assay: Rat aortic rings, endothelium intact or denuded, PE-induced contraction; assay type: cell-based
Excerpt: In these experiments, aorta (3 mm rings) were cleaned of adherent connective tissue and hung on stainless steel hooks attached between a force transducer and stationary mount for the measurement of isometric force generation. Endothelium was removed from some vessels by gentle rubbing of the lumen with a steel wire. Aortic rings were then placed in an isolated chamber, bathed in physiologic salt solution (mmol/L: 130 NaCl, 4.7 KCl, 1.18 KHPO4, 1.17 MgSO4, 1.6 CaCl2-2H2O, 14.9 NaHCO3, 5.5 dextrose, and 0.03 CaNa2EDTA; 37° C.) and gassed with 95% O2/5%CO2 Rings were set at 3 g passive tension and treated with indomethacin (1 μmol/L) to inhibit prostaglandin synthesis. Following a one hour equilibration period, vessels were contracted with phenylephrine (PE) (0.1 μmol/L) and subsequently treated with acetylcholine (1 μmol/L) to test for the presence of endothelium.

SHRSP rats = assay: Ganglionic-mediated ICP/MAP in stroke prone spontaneously hypertensive rats (SHRSP); assay type: in vivo, rat; conditions: 50 nmol/kg into left corpus cavernosum, 1-5 V
Excerpt: (§2) In these experiments, male Sprague-Dawley rats (200-250 g; Harlan) were made DOCA-salt hypertensive by uninephrectomy and implantation of a deoxycorticosterone-acetate (DOCA) silastic pellet at the back of the neck. DOCA rats received saltwater (1% NaCl, 0.2% KCl) for 4 weeks. Sham control rats were uninephrectomized and drank tap water. Male stroke prone-spontaneously hypertensive rats (12 weeks old, 350 g) were obtained from the breeding colony at the Medical College of Georgia, Augusta, Ga. Systolic blood pressures were taken by tail cuff measurement (DOCA/sham: after 4 weeks treatment; SHRSP: at 12 weeks of age). Measurement of ICP/MAP was as described above. […] Subsequently, the ICP/MAP response to ganglionic stimulation was assessed over a range of voltages.

erectile tissue = assay: Erectile response ICP/MAP to NO donor and Rho-kinase inhibitor injected into erectile tissue; assay type: in vivo; conditions: small/low dose injected directly into erectile tissue
[3] = male, rat, in vivo
Protocol: as §1

[4] = test system: animal model of hypertension; conditions: cited from earlier work
cultured cells = conditions: cited from earlier work
corpus cavernosum [5] = assay: Intracavernosal injection in anesthetized rat, CCP/MAP without ganglionic stimulation; assay type: in vivo; design: time to plateau of CCP/MAP increase: unit not given here
Protocol: as §1

castrated rats = assay: Erectile response to graded ganglionic stimulation in castrated rats; assay type: in vivo, rat; conditions: intracavernosal injection, 1-5 V
Excerpt: Rats which have been rendered severely hypogonadal by surgical castration show a diminished erectile response.

[6] = test system: DOCA-salt hypertensive rats; assay: Ganglionic-mediated ICP/MAP in DOCA-salt hypertensive rats; assay type: in vivo, rat; conditions: 50 nmol/kg into left corpus cavernosum, 1-5 V
Excerpt: as §2

corpus cavernosum [7] = assay: Erectile response to electrical stimulation of the autonomic ganglion after phosphatase inhibitor injected into corpus cavernosum; assay type: in vivo; conditions: data not shown
Excerpt: In an embodiment, the target of Rho-kinase is MLC phosphatase (FIG. 2). […] With MLC phosphatase activity inhibited, the resulting high levels of phosphorylated myosin light chain keep the sexual organs in a nonerect state.

[8] = 200 μg/kg into cavernosal sinuses

N=C(NCCC[C@H](N)C(=O)O)N[N+](=O)[O-] [L-NNA, N^ω-nitro-L-arginine]
effect on baseline CCP or MAP (corpus cavernosum [1]; [8]): did not alter CCP or MAP from baseline

CN(C)c1ccc2nc3ccc(=[N+](C)C)cc-3sc2c1 [MB, methylene blue]
effect on relaxation response of cavernosal strips to 1 μM Y-27632 [2]: did not significantly alter | CCP/MAP at 5 V (mean ± s.e.m.) (corpus cavernosum [1]; MB 300-500 μg/kg intracavernosal, Y-27632 50-200 nmol/kg in continued presence of MB): 0.49±0.04

O=c1onc2cnc3ccccc3n12 [ODQ, 1H-[1,2,4]oxadiozolo-[4,3-a]quinoxalin-1]
CCP/MAP at 5 V (mean ± s.e.m.) (corpus cavernosum [1]; ODQ 300-500 μg/kg intracavernosal, Y-27632 50-200 nmol/kg in continued presence of ODQ): 0.50±0.07

COc1ccc(OC)c(C(O)C(C)N)c1 (centres unmarked) [METHOX, Methoxamine]
effect on erectile response to 5V ganglionic stimulation (cavernous sinuses): lowered the erectile response

CC(N)[C@H]1CC[C@H](C(=O)Nc2ccncc2)CC1 (single isomer, unassigned; (+)) [Y-27632, monohydrate]
vasodilator sensitivity to SNP (rat aorta; 1 μmol/L prior to PE contraction, endothelium-denuded vessels): increased vasodialator sensitivity to SNP | inhibition of force generation to 10 μmol/L PE (rat aorta; 1 μmol/L, endothelium denuded vessels): completely ineffective | inhibition of force generation to 10 μmol/L PE (rat aorta; 1 μmol/L, endothelium intact rings): significant inhibition of force generation | inhibition of contractile response to 10 μmol/L PE (rat aorta; 1 μmol/L, endothelium intact, in presence of L-NNA (100 μmol/L) or ODQ (10 μmol/L)): significantly less effective | inhibition of contractile response to 10 μmol/L PE (rat aorta; 10 μmol/L or 100 μmol/L, endothelium denuded rings): concentration dependent inhibition | IC50 ([2]; Rattus norvegicus, read-out: IC50, relaxation of PE-induced tone): 1000 nM | erectile response (ICP/MAP) (SHRSP rats): significantly increasing the erectile response | erectile response (increase in ICP/MAP) (erectile tissue): cause an erectile response | effect on attenuation of ganglionic-induced CCP/MAP increase by NOS inhibition (corpus cavernosum [1]; 50 nmol/kg after L-NAME, 5 V): overcome | effect on CCP/MAP response to ganglionic stimulation (corpus cavernosum [1]; 200 nmol/kg into cavernous sinuses, 0-5 V): potentiated the CCP/MAP response to ganglionic stimulation at each voltage | ganglionic-stimulated rise in CCP/MAP at lowest voltages (corpus cavernosum [1]; 200 nmol/kg, lowest stimulation voltages): near maximal levels | increase in ganglionic-stimulated CCP/MAP at 5 V (corpus cavernosum [1]; 2.0-200 nmol/kg, 5 V): 21-38% | dose at which MAP was significantly decreased [3]: ≥ 400 nmol/kg | smooth muscle relaxation [4]: cause smooth muscle relaxation | smooth muscle relaxation (cultured cells): cause smooth muscle relaxation | increase in CCP/MAP (corpus cavernosum [5]; 2.0-400 nmol/kg body weight in 2 μl saline into left corpus cavernosum sinuses, no stimulation): significant dose-dependent increase | time to plateau of CCP/MAP increase (corpus cavernosum [5]; 2.0-400 nmol/kg intracavernosal): about four | maximum increase in CCP/MAP over control (corpus cavernosum [5]; range of 2.0-200 nmol/kg, independent of significant changes in MAP): 74% | erectile response (castrated rats): restored to levels similar to those in age-matched intact animals | erectile response (ICP/MAP) [6]: elevating the erectile response to near normal levels | effect on vasoconstrictor action of ET-1 (cavernous sinuses; 50 nmol before ET-1 50 pmol, 5V): vasoconstrictor effect was prevented | effect on vasoconstrictor action of METHOX (cavernous sinuses; 50 nmol before METHOX 10 μg/kg, 5V): vasoconstrictor effect was prevented

endothelin-1 (CSCSSLMDKECVYFCHLDIIW; Endothelin-1; UniProt P05305 53-73, looked up) [ET-1, vasoconstrictor]
effect on erectile response to 5V ganglionic stimulation (cavernous sinuses): lowered the erectile response

[Na+].[Na+].[Na+].[O]=[V]([O-])([O-])[O-] [SOV, sodium orthovanadate]
inhibition of erectile response (corpus cavernosum [7]; 0.1 and 1 μmol/L SOV): significant inhibition | effect on erectile response (corpus cavernosum [7]; injected into corpus cavernosum immediately before stimulation): inhibits the erectile response in a dose dependent manner

(+/−)-(E)-methyl-2-((E)-hydroxyimino)-5-nitro-6-methoxy-3-hexenamide [NOR-1]
erectile response (increase in ICP/MAP) (erectile tissue): intermediate erectile response

COC(=O)[C@@H](N)CCCNC(=N)N[N+](=O)[O-] [L-NAME, N^ω-nitro-L-arginine methyl ester]
effect on relaxation response of cavernosal strips to 1 μM Y-27632 [2]: did not significantly alter | effect on PE-induced contraction ([2]; 10 μM, 15 min): no effect | effect on increase in CCP/MAP induced by 5 V stimulation (corpus cavernosum [1]; 200 μg/kg into cavernosal sinuses, 5 V): significantly attenuated | effect on baseline CCP or MAP (corpus cavernosum [1]; [8]): did not alter CCP or MAP from baseline
